Experiments:
[1] = target: recombinant human FGFR2 cytoplasmic domain (Homo sapiens (Human), UniProt P21802); assay: FGFR Enzyme Activity Assay (LanthaScreen TR-FRET), FGFR2; assay type: biochemical; conditions: 15 μM ATP, 20 minute incubation; read-out: FGFR2 Enz FRET IC50
Description: FGFR2 kinase activity was measured by the Invitrogen LanthaScreen™ Assay technology which directly measures the amount of substrate phosphorylation by TR-FRET using a flourescently-labeled peptide and Europium-labeled antibody. Briefly, 200 pM His-tagged recombinant human FGFR2 cytoplasmic domain (amino acids 403-822) (Life Technologies Cat. No. PR5332A) was incubated with 100 nM Alexa Fluor® 647-Poly-GT Peptide Substrate (Life Technologies Cat. No. PV5836) and 15 μM ATP along with test compound in a buffer consisting of 250 mM HEPES, 25 mM MgCl2, 0.05% TritonX-100, pH 7.5, and 2% DMSO. Compounds were typically prepared in a threefold serial dilution in DMSO and added to the assay to give the appropriate final concentration. After a 20 minute incubation at 22° C., an equal volume of 2 nM LanthaScreen® Eu-PY20 Antibody (Life Technologies Cat. No. PV5691) and 10 mM EDTA were added to quench the kinase reaction and start the detection reaction. After an additional 60 minute incubation at 22° C., the reaction was measured using a PerkinElmer EnVision multimode plate reader via TR-FRET dual wavelength detection, and the percent of control (POC) calculated using a ratiometric emission factor. 100 POC was determined using no test compounds and 0 POC was determined using no enzyme. The POC values were fit to a 4-parameter logistic curve as a function of the concentration of the compound, and the IC50 value is the point where the curve crosses 50 POC.

dephosphorylated FGFR1 = dephosphorylated FGFR1 (Homo sapiens (Human), UniProt P11362); assay: FGFR Enzyme Binding Assay (HTRF tracer displacement), FGFR1; conditions: 5 nM dephosphorylated FGFR1, 60 minute incubation at 22° C.; read-out: FGFR1 Enz Binding IC50
Chain of dephosphorylated FGFR1 (P11362 458-765): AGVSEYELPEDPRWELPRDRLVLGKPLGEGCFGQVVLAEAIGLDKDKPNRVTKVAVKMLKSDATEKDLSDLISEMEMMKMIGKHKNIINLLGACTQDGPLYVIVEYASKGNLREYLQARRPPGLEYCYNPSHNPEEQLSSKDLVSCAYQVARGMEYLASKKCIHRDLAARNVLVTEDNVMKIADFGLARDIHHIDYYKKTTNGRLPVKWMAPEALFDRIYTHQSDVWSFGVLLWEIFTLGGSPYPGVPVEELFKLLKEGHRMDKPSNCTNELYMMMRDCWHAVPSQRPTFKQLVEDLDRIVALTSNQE
Description: The potency of compounds inhibiting human isoforms of FGFR kinase was determined using Life Technologies' Homogeneous Time Resolved Fluorescence (HTRF)-based binding assay technology. An incubation was conducted with either 5 nM dephosphorylated FGFR1 (Array Biopharma, p1702; SEQ ID NO: 1, amino acids 458 to 765, dephosphorylated by co-expression with PTP1b (protein tyrosine phosphatase 1B)), 5 nM dephosphorylated FGFR2 (Life Technologies, Cat. No. PV4106 that had been dephosphorylated with Lambda protein phosphatase (New England Biolabs, cat #P0753)) or 5 nM phosphorylated FGFR3 (Array Biopharma, p1836; SEQ ID NO: 5, amino acids 449 to 759), 50 nM Kinase Tracer 236 (Life Technologies Cat. No. PR9078A), 2 nM Biotin-anti-6HIS (Life Technologies Cat. No. PV6090) and 2 nM Europium-Streptavidin (Life Technologies Cat. No. PV6025) along with test compound in a buffer consisting of 50 mM HEPES ((4-(2-hydroxyethyl)-1-piperazineethanesulfonic acid, pH 7.5), 5 mM MgCl2, 0.005% Triton X-100, 1 mM DTT, 1 mM NaVO4 and 2% DMSO in a final volume of 12 μL Compounds were typically prepared as a 3-fold or 4-fold serial dilution in DMSO and added to the assay to give the appropriate final concentration. After a 60 minute incubation at 22° C., the extent of tracer displacement was determined using a PerkinElmer EnVision multimode plate reader via HTRF dual wavelength detection, and the percent of control (POC) was calculated using a ratiometric emission factor. One hundred POC was determined using no test compound, and 0 POC was determined in the presence of 1 μM of an appropriate control inhibitor. A 4-parameter logistic curve was fit to the POC values as a function of the concentration of compound, and the IC50 value was the point where the best-fit curve crossed 50 POC.

FGFR3 = FGFR3 (Homo sapiens (Human), UniProt P22607); assay: LC/MS FGFR3 kobs assay (covalent modification); assay type: biochemical; conditions: 500 nM FGFR3, 3 μM compound
Chain of FGFR3 (P22607 449-759): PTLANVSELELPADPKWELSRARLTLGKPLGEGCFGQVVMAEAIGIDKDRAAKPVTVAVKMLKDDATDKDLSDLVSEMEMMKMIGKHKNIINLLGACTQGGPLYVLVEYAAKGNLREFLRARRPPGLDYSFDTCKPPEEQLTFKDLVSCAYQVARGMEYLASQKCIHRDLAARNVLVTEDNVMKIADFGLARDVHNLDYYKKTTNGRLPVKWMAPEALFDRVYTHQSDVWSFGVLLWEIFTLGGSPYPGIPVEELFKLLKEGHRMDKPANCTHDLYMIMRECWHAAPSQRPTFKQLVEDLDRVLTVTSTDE
Description: (§1) The LC/MS FGFR1 and FGFR3 kobs assays were conducted as follows. 500 nM FGFR1 (Array BioPharma construct p1702; SEQ ID NO: 1, amino acids 458-765) or FGFR3 (Array BioPharma construct p1700; SEQ ID NO: 5, amino acids 449-759) were incubated with 3 μM compound in 25 mM HEPES (4-(2-hydroxyethyl)-1-piperazineethanesulfonic acid), pH 7.4, 5 mM MgCl2, 150 mM NaCl, 0.5 mM TCEP (tris(2-carboxyethyl) phosphine), and 2% DMSO in a total volume of 20 μL. At each time point, the reaction was quenched with 20 μL of 0.4% formic acid. The extent of protein modification by each compound was determined by LC/MS on an Agilent Technologies 6520 Q-TOF LC/MS. Protein signals were then automatically deconvoluted using Agilent Masshunter software. Deconvoluted mass signals were exported to Tibco Spotfire data analysis program for further processing and normalization.
(§2) Data analysis included five steps. First, the signals for the “DMSO Controls” were analyzed to determine the percent of signal associated with unmodified FGFR1 or FGFR3 at each time point. Next, the percent of the signal associated with the covalent modification was determined. Third, the average nonmodified “DMSO Control” signal was used to normalize the modified protein signals at each time point. The percent of unmodified protein was fit to an exponential decay model where A0 is the Percent Unmodified at the start of the reaction, and kobs is the observed rate constant over the time period.

human wild type FGFR3 = human wild type FGFR3 (Homo sapiens (Human), UniProt P22607); assay: FGFR3 pERK Cell Assay; assay type: cell-based; conditions: HEK-293 cells, 1 hour compound, 100 ng/ml human FGF-acidic; maximum concentration 5 μM
Chain of human wild type FGFR3 (P22607 23-806): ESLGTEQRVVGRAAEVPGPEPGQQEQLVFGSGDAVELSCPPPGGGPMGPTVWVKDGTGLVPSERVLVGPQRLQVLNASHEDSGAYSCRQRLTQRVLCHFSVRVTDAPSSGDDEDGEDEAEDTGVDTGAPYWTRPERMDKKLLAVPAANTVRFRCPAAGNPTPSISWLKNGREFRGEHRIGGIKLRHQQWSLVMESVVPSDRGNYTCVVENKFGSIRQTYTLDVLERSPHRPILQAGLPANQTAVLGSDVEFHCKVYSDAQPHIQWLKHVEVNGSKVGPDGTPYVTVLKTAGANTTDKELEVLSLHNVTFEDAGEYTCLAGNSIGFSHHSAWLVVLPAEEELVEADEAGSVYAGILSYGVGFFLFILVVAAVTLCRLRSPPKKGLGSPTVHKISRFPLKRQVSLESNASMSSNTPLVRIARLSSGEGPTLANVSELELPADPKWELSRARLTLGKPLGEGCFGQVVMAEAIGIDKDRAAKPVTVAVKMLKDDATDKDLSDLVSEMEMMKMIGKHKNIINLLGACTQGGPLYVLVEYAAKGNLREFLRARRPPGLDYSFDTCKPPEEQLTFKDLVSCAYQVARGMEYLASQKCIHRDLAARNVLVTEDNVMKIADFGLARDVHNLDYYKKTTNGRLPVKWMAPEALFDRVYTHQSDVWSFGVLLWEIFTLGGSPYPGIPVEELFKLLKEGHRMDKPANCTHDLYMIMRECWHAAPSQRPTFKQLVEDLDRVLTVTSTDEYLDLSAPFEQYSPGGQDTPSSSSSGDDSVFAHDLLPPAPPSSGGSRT
Description: HEK-293 cells transfected with dox-inducible human wild type FGFR3 (SEQ ID NO: 5) were plated in a collagen or poly-D-lysine coated 96 well flat bottom plates at 4×10^5 cells/well in complete DMEM medium containing 10% FBS and 1 μg/ml doxycycline and allowed to attach for 24 h at 37° C., 5% CO2. Cells were treated with compound using 1:3 serial dilutions with a maximum final concentration of 5 μM. Compound was incubated on cells for 1 hour at 37° C., 5% CO2. Cells were then stimulated with a final concentration of 100 ng/ml human FGF-acidic (R&D Systems Cat number 232-FA/CF) for 5 minutes at 37° C., 5% CO2. Medium was removed, and cells were lysed with lysis buffer containing phosphatase and protease inhibitors. Phospho ERK1/2 was measured using the Meso Scale Discovery sandwich assay (Meso Scale Discovery cat. no. K151DWD). The assay captures phospho ERK1/2 and detects with a sulfo-tagged total ERK1/2 antibody. The chemiluminescent signal was read on the Sector Imager Plate reader. 100 POC was determined using no test compounds and 0 POC was determined using a control compound. The POC values were fit to a 4-parameter logistic curve as a function of the concentration of the compound, and the IC50 value is the point where the curve crosses 50 POC.

FGFR1 = FGFR1 (Homo sapiens (Human), UniProt P11362); assay: LC/MS FGFR1 kobs assay (covalent modification); assay type: biochemical; conditions: 500 nM FGFR1, 3 μM compound
Chain of FGFR1 (P11362 458-765): as the sequence (P11362 458-765) above
Description: as §1, §2

Chain of recombinant human FGFR2 cytoplasmic domain (P21802 402-821): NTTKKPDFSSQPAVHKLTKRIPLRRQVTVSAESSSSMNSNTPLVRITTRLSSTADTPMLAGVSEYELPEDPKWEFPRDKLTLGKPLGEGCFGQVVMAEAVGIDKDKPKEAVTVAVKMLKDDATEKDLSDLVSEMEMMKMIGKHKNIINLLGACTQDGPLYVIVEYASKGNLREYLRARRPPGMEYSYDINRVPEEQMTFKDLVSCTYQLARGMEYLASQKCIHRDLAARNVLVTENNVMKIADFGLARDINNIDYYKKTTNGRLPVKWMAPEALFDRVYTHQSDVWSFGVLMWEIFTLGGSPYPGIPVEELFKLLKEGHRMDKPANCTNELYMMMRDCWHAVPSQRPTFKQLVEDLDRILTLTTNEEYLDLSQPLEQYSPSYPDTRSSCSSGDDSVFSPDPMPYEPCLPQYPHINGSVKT

Structure (SMILES)	IC50 [1]	IC50 (dephosphorylated FGFR1)	FGFR3 Enz kobs (FGFR3)	IC50 (human wild type FGFR3)	FGFR1 Enz kobs (FGFR1)
COc1cc(Nc2ccc3ncc(-c4ccc(N5CCN(C(=O)C6(F)CN(C(=O)/C=C/CN(C)C)C6)CC5)nc4)nc3c2)cc(OC)c1 [Example 7, (E)-1-(3-(4-(5-(7-((3,5-dimethoxyphenyl)amino)-quinoxalin-2-yl)pyridin-2-yl)piperazine-1-carbonyl)-3-fluoroazetidin-1-yl)-4-(dimethylamino)but-2-en-1-one]	227 nM	342 nM	0.1309 min⁻¹	77 nM	0.00659 min⁻¹
C=CC(=O)N1CCC(C(=O)N2CCC(n3cc(-c4cnc5ccc(Nc6cc(OC)cc(OC)c6)cc5n4)cn3)CC2)CC1 [Example 3, 1-(4-(4-(4-(7-((3,5-dimethoxyphenyl)amino)-quinoxalin-2-yl)-1H-pyrazol-1-yl)piperidine-1-carbonyl)piperidin-1-yl)prop-2-en-1-one]	12 nM	26 nM	0.00166 min⁻¹	135 nM	
COc1cc(Nc2ccc3ncc(-c4cnn(C5CCN(C(=O)C6(C#N)CN(C(=O)/C=C/CN(C)C)C6)CC5)c4)nc3c2)cc(OC)c1 [Example 11, (E)-3-(4-(4-(7-((3,5-dimethoxyphenyl)amino)-quinoxalin-2-yl)-1H-pyrazol-1-yl)piperidine-1-carbonyl)-1-(4-(dimethyl-amino)but-2-enoyl)-azetidine-3-carbonitrile]	15 nM	44 nM	0.1473 min⁻¹	19 nM	0.01822 min⁻¹
C=CC(=O)N1CC(C#N)(C(=O)N2CCC(n3cc(-c4cnc5ccc(Nc6cc(OC)cc(OC)c6)cc5n4)cn3)CC2)C1 [Example 12, 1-acryloyl-3-(4-(4-(7-((3,5-dimethoxyphenyl)-amino)quinoxalin-2-yl)-1H-pyrazol-1-yl)-piperidine-1-carbonyl)-azetidine-3-carbonitrile]	33 nM	48 nM	0.07246 min⁻¹	22 nM	0.0107 min⁻¹
C=CC(=O)N1CC(F)(C(=O)N2CCC(n3cc(-c4cnc5ccc(Nc6cc(OC)cc(OC)c6)cc5n4)cn3)CC2)C1 [Example 4, 1-(3-(4-(4-(7-((3,5-dimethoxyphenyl)amino)-quinoxalin-2-yl)-1H-pyrazol-1-yl)piperidine-1-carbonyl)-3-fluoro-azetidin-1-yl)prop-2-en-1-one]	40 nM	33 nM	0.03901 min⁻¹	20 nM	0.00632 min⁻¹

Next, values leading:

IC50 [1]	IC50 (dephosphorylated FGFR1)	FGFR3 Enz kobs (FGFR3)	IC50 (human wild type FGFR3)	FGFR1 Enz kobs (FGFR1)	Structure (SMILES)
3460 nM	842 nM	0.07588 min⁻¹	699 nM	0.00386 min⁻¹	COc1cc(Nc2ccc3ncc(-c4c(C)nn(C5CCN(C(=O)C6(F)CN(C(=O)/C=C/CN(C)C)C6)CC5)c4C)nc3c2)cc(OC)c1 [Example 23, (E)-1-(3-(4-(4-(7-((3,5-dimethoxyphenyl)amino)-quinoxalin-2-yl)-3,5-dimethyl-1H-pyrazol-1-yl)piperidine-1-carbonyl)-3-fluoroazetidin-1-yl)-4-(dimethylamino)but-2-en-1-one]
27 nM	30 nM	0.01232 min⁻¹	397 nM	0.00151 min⁻¹	C=CC(=O)N1CC(C(=O)N2CC(n3cc(-c4cnc5ccc(Nc6cc(OC)cc(OC)c6)cc5n4)cn3)C2)C1 [Example 16, 1-(3-(3-(4-(7-((3,5-dimethoxyphenyl)amino)-quinoxalin-2-yl)-1H-pyrazol-1-yl)azetidine-1-carbonyl)azetidin-1-yl)-prop-2-en-1-one]
211 nM	53 nM	0.01322 min⁻¹	19 nM	0.00223 min⁻¹	C=CC(=O)N1CC(OC)(C(=O)N2CCC(n3cc(-c4cnc5ccc(Nc6cc(OC)cc(OC)c6)cc5n4)cn3)CC2)C1 [Example 24, 1-(3-(4-(4-(7-((3,5-dimethoxyphenyl)amino)-quinoxalin-2-yl)-1H-pyrazol-1-yl)piperidine-1-carbonyl)-3-methoxy-azetidin-1-yl)prop-2-en-1-one]
1740 nM	759 nM	0.00369 min⁻¹		0.00404 min⁻¹	C=CC(=O)N1CC(C(=O)N2CCN(c3cccc(-c4cnc5ccc(Nc6cc(OC)cc(OC)c6)cc5n4)c3)CC2)C1 [Example 25, 1-(3-(4-(3-(7-((3,5-dimethoxyphenyl)amino)-quinoxalin-2-yl)phenyl)-piperazine-1-carbonyl)-azetidin-1-yl)prop-2-en-1-one]
1910 nM	6620 nM	0.02606 min⁻¹		0.00293 min⁻¹	COc1cc(Nc2ccc3ncc(-c4ccc(N5CCN(C(=O)C6(F)CN(C(=O)/C=C/CN(C)C)C6)CC5)nc4C)nc3c2)cc(OC)c1 [Example 13, (E)-1-(3-(4-(5-(7-((3,5-dimethoxyphenyl)amino)-quinoxalin-2-yl)-6-methylpyridin-2-yl)-piperazine-1-carbonyl)-3-fluoroazetidin-1-yl)-4-(dimethylamino)but-2-en-1-one]
